The record followed here is patent publication US11439646B2, “Anti-proliferative agents for treating PAH” (Pfizer Inc., priority 2016, dated 2022).

Molecules are shown by their SMILES. Like-named read-outs stand apart in the source and are kept apart here.

In one assay the test system is hPAAF. The assay is described as follows: EdU cell proliferation assay, hPAAF. The settings on record: Homo sapiens, 5% FBS, N = 6, FIG. 1f, read-out: hPAAF IC50 (nM), inhibition of proliferation. In kind it is cell-based. The protocol: Alternatively, rather than using BrdU, EdU (5-ethynyl-2′-deoxyuridine) can be used. Cells were first pre-incubated with different concentrations of the CDK inhibitor for 30 minutes, and then 5% FBS was added to stimulate cell proliferation. Cells were maintained for 24 h before the proliferation rate was evaluated using EDU Click-iT EdU Alexa Fluor® 647 HCS Assay (Thermofisher Scientific, USA). EdU was added to the medium 16 h before the quantification of EdU incorporation. Proliferation was quantified by scanning the 96-well plates using automated high content imaging platform equipped with appropriate fluorescence microscopic filters for DAPI (4′,6-Diamidino-2-Phenylindole) or Hoechst stain and Cyanine5 dyes as part of the Click-iT assay. Proliferating EdU positive cells detected at Cyanine5 were quantified and normalized to total cell number per well where the total cell number per cell was identified by DAPI or Hoechst signal. The % effect was then calculated:
The average (avg) amount (amt) of proliferating cells per concentration of CDK inhibitor with FBS present.
The minimum amount of proliferation (min amt of prolif'n) is based on cell numbers in the wells where FBS is not added and no CDK inhibitor is present.
The maximum amount of proliferation (max amt of prolif'n) is based on cell numbers in the wells where FBS is added and no CDK inhibitor is present.

The subject of a further assay is phospho-Rb (Ser807/811). The assay is described as follows: In-cell western analysis of Rb phosphorylation in human PASMCs. In kind it is cell-based. The conditions noted are these: for IC50: PASMC. The protocol:
In-cell western analysis. Primary PASMCs from normal human subjects were cultured and serum-starved as described above. Cells were first pre-incubated with different concentrations of palbociclib for 60 minutes, and then either 5% FBS or 10% FBS or 30 ng/ml PDGF-BB was added to stimulate cell proliferation and Rb phosphorylation. The effect of Palbociclib on Rb phosphorylation was evaluated 24 h later, using in-cell western assay according to the manufacturer's instructions (Li-Cor Biosciences, Lincoln, Nebr., USA). Phosphorylated Rb was measured using a rabbit monoclonal antibody anti-phospho-Rb (Ser807/811) (Cell Signaling Technology, Inc., Danvers, Mass., USA), followed by detection with IRDye 800CW infrared fluorescent dye-labeled goat anti-rabbit secondary antibody. Actin levels were measured using mouse anti-actin monoclonal antibodies (pan Ab-5) (Fisher Scientific Pittsburgh, Pa., USA; Sigma Aldrich, St. Louis, Mo., USA), and followed by detection with IRDye 680RD-labeled goat anti-mouse secondary antibody. See FIG. 2a where 5% FBS was used, FIG. 2b where PDGF-BB was used, and FIG. 2c where 10% FBS was used.

The test system of assay [1] is Rat MCT-induced PAH Model. The assay is described as follows: Rat MCT-induced PAH model (hemodynamics, histomorphometry, IHC). In kind it is in vivo. The protocol: Rat MCT-induced PAH Model: Male Sprague-Dawley rats (Charles River Laboratories) (260-280 g; vehicle control group, n=6; all other groups, n=15) received MCT (50 mg/kg, SC; 1 ml/kg BVV) dissolved in vehicle (33.3% 1 N HCl, 14.8% 1 N NaOH, 52.2% diH2O) or vehicle alone on day 0. Sildenafil (50 mg/kg/dose; BID) was administered (5 ml/kg, PO) either prophylactically from days 0-28 or therapeutically from days 14-28. Palbociclib (100 mg/kg; QD) was administered therapeutically (days 14-28). Both sildenafil and palbociclib were resuspended in vehicle (0.5% methylcellulose) and administered orally (5 ml/kg). On day 28, animals were anesthetized via isoflurane, hemodynamic parameters were evaluated, and tissues harvested after euthanasia.
Hemodynamic measurements—monocrotaline (MCT) study: On day 28, animals were anesthetized via 2% isofluorane in positive pressure ventilator. Pulmonary hemodynamics were measured using a pre-calibrated pressure transducer in isoflurane positive-pressure ventilated animals. Steady-state pulmonary and systemic arterial pressures were measured using a Millar Solid State Mikro-tip catheter (Millar Instruments, Houston, Tex.) introduced to the pulmonary arterial trunk at the level of the aortic arch via the right carodid artery. Hemodynamic values were automatically calculated by the physiological data acquisition system, ADI Chart (ADI Instruments, Colorado Springs, Colo.) (Plato BioPharma).
Measurement of RV hypertrophy. After collection of the heart at necropsy, the atria and great vessels were removed. The RV was separated from the LV and S. The wet weights of the RV and LV+S were measured to calculate the Fulton Index.
Tissue preparation. Under anesthesia, the animals were exsanguinated, and the pulmonary circulation flushed with oxygenated (animals from Example 3 [MCT]) or heparizined (animals from Example 4 [Su5416/Hx]) saline. Trachea, lungs, and heart were removed intact from thoracic cavity and placed in ice-cold saline. Right lung lobes were removed, weighed, and immediately flash frozen in liquid nitrogen. A 10 mL syringe filled with fixative (10% NBF) with attached blunt tip needle (20 g) was used to inflate the left lung lobe and the airway was tied off to keep it consistently expanded. The left lung was then immersion fixed in 10% NBF for 48 hrs and then transferred to 70% EtOH for ≤5 days.
Histomorphometric analysis. Three, 3-5 μm thick, transverse sections of the left lung lobe were used for histomorphometric analysis. Overall disease severity scores were determined by light microscopic evaluation of hematoxylin and eosin (H&E)-stained lung sections by a board-certified veterinary pathologist. Scores ranged from 0 (absent), 1 (minimal), 2 (mild), 3 (moderate), 4 (marked) to 5 (severe) and were assigned according to the approximate percentage of the tissue affected by the tissue changes (inflammatory, degenerative, vascular and/or proliferative) characteristic of the PAH model. Average vessel wall thickness was evaluated using lung sections prepared with a modified Verhoeff-van Gieson elastin stain. Image analysis was performed using random field sampling (Visiopharm newCAST) of 10% of tissue area with observer-assisted identification of intra-acinar and pre-acinar vessels and application of a nucleator probe to measure vessel wall thickness. Fully muscularized intra-acinar vessel density was evaluated in a similar manner using dual αSMA/Ki67 IHC-stained sections and observer-assisted counting of ≥70% muscularized (i.e. SMA^+), transversely sectioned, ≤50 μm external diameter, intra-acinar vessels with an identifiable lumen. Vessel-associated Ki67^+ and pRb^+ cells were counted in αSMA/Ki67 IHC-and CD31/pRb IHC-stained lung sections, respectively, using random field sampling of 10% of tissue area and observer-assisted identification of Ki67^+ or pRb^+ cells associated with the walls (i.e. in the intima or media) of vessels 100 μm external diameter.
Immunohistochemistry. […]

Where [2] appears, read: day 14-28, score scale 0-5, FIG. 3g.

For `CC(=O)c1c(C)c2cnc(Nc3ccc(N4CCNCC4)cn3)nc2n(C2CCCC2)c1=O` [Palbociclib, 6-acetyl-8-cyclopentyl-5-methyl-2-{[5-(piperazin-1-yl)pyridin-2yl]amino}pyrido[2,3-d]pyrimidin-7(8H)-one], the IC50 in the assay with hPAAF was found to be 0.4 nM; in the assay with phospho-Rb (Ser807/811) (Homo sapiens, 10% FBS, N = 6, FIG. 2c, read-out: Average IC50 (nM), inhibition of phosphorylation of Rb in hPASMCs) it was 64.2 nM; with phospho-Rb (Ser807/811) (human PASMCs, 5% FBS, FIG. 2a, read-out: IC50, serum-induced Rb phosphorylation), 14.9 nM; with phospho-Rb (Ser807/811) (human PASMCs, PDGF-BB, FIG. 2b, read-out: IC50, PDGF-BB induced Rb phosphorylation) it was 5.2 nM. Also, the “effect on total Rb levels” value in the assay on phospho-Rb (Ser807/811) (human primary PASMCs, 5% FBS or PDGF-BB) is “little effect”. Besides, in assay [1] (FIG. 3f), the “structural changes in the pulmonary vasculature (histomorphometry)” value was “dramatically improved and in some cases fully normalized”. Besides, in assay [1] (FIG. 5c), the “vessel-associated Ki67+ proliferating cells (IHC, lung)” value is “dramatically decreased to control levels”. Moreover, the “vessel-associated phosphoRb+ cells (IHC, lung)” value in assay [1] (FIG. 5d) is given as “dramatically decreased to control levels”. Also, in assay [1] (day 14-28, FIG. 3e), the “density of fully muscularized intra-acinar vessels (αSMA staining)” value is given as “greater reduction”. In addition, the “average vessel wall thickness (elastin staining), intra-acinar and pre-acinar pulmonary arteries, relative to vehicle/MCT group” value in assay [1] (day 14-28, FIG. 3d) is 0.58 x MCT. Besides, the “disease severity scores, mean” value in assay [1] (setting [2]) stood at 1. Further, the “disease severity scores, range” value in assay [1] (setting [2]) is 0-2. Further, the “hemodynamic and physiologic effects” value in assay [1] (palbociclib 100 mg/kg/day PO QD, therapeutic day 14-28, versus sildenafil day 0-28) is “not only matched but exceeded the positive hemodynamic and physiologic effects of sildenafil when dosed prophylactically”.
